Measured values published in BindingDB's records for patent US11566007 (Revolution Medicines, 2023).

What was measured:
Assay in all cases: Biochemical Assay
[1] = biological target: GTPase NRas [G12C] (Homo sapiens, UniProt P01111, G12C)
[2] = biological target: GTPase KRas [G12S] (Homo sapiens, UniProt P01116, G12S)
Description: (§1) The purpose of this biochemical assay is to measure the ability of test compounds to covalently label nucleotide-loaded K-Ras isoforms. […] Analysis of raw data may be carried out using Waters MassLynx MS software, with % bound calculated from the deconvoluted protein peaks for labeled and unlabeled K-Ras.

[3] = biological target: GTPase NRas [Q61K] (Homo sapiens, UniProt P01111, Q61K)
Sequence of GTPase NRas [Q61K] (P01111 whole entry Q61K): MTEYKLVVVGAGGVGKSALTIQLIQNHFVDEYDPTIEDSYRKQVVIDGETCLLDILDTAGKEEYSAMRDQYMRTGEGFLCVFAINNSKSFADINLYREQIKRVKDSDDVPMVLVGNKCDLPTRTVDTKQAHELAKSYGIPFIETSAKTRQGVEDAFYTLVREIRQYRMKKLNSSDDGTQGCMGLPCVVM

[4] = biological target: GTPase NRas (Homo sapiens, UniProt P01111)
Sequence of GTPase NRas (P01111 whole entry): as the sequence (P01111 whole entry Q61K) above, with K61Q counted along it

[5] = biological target: GTPase KRas [G12C] (Homo sapiens, UniProt P01116, G12C)
Sequence of GTPase KRas [G12C] (P01116 whole entry G12C): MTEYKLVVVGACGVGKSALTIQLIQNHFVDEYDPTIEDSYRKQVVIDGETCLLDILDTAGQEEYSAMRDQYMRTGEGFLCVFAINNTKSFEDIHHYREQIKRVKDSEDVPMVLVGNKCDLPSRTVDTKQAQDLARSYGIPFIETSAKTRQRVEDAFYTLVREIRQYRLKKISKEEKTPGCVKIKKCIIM
Description: as §1

[6] = biological target: GTPase KRas [G12D] (Homo sapiens, UniProt P01116, G12D)
Sequence of GTPase KRas [G12D] (P01116 whole entry G12D): as the sequence (P01116 whole entry G12C) above, with C12D counted along it
Description: as §1

[7] = biological target: GTPase KRas [Q61H] (Homo sapiens, UniProt P01116, Q61H)
Sequence of GTPase KRas [Q61H] (P01116 whole entry Q61H): as the sequence (P01116 whole entry G12C) above, with C12G, Q61H counted along it
Description: as §1

[8] = biological target: GTPase NRas [Q61R] (Homo sapiens, UniProt P01111, Q61R)
Sequence of GTPase NRas [Q61R] (P01111 whole entry Q61R): as the sequence (P01111 whole entry Q61K) above, with K61R counted along it

[9] = biological target: GTPase KRas [G13C] (Homo sapiens, UniProt P01116, G13C)
Sequence of GTPase KRas [G13C] (P01116 whole entry G13C): as the sequence (P01116 whole entry G12C) above, with C12G, G13C counted along it
Description: as §1

[10] = biological target: GTPase KRas (Homo sapiens, UniProt P01116)
Sequence of GTPase KRas (P01116 whole entry): as the sequence (P01116 whole entry G12C) above, with C12G counted along it
Description: as §1

Sequence of GTPase NRas [G12C] (P01111 whole entry G12C): as the sequence (P01111 whole entry Q61K) above, with G12C, K61Q counted along it
Sequence of GTPase KRas [G12S] (P01116 whole entry G12S, canonical isoform): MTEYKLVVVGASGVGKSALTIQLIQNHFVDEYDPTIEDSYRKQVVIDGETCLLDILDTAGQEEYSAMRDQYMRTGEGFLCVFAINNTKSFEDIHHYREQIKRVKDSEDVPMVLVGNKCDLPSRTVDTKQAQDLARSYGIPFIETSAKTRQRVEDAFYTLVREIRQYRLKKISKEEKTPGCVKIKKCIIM

Compound	IC50 [1]	IC50 [4]	IC50 [5]	also measured
CCn1c(-c2ccccc2CCOC)c2c3cc(ccc31)-c1cc(O)cc(c1)C[C@H](NC(=O)[C@H](C(C)C)N(C)C(=O)[C@H]1CCN(C(=O)C#CCN(C)C)C1)C(=O)N1CCC[C@H](N1)C(=O)OCC(C)(C)C2 [US11566007, Example A38]	< 0.01 µM			IC50 [2]: 1 to 10 µM
C=CC(=O)N1CC[C@H](C(=O)N(C)[C@H](C(=O)N[C@H]2Cc3cc(O)cc(c3)-c3ccc4c(c3)c(c(-c3ncccc3COC)n4CC)CC(C)(C)COC(=O)[C@@H]3CCCN(N3)C2=O)C(C)C)C1 [US11566007, Example A84]				IC50 [3]: > 10 µM
C=CC(=O)N1CC[C@H](C(=O)N(C)[C@H](C(=O)N[C@H]2Cc3cc(O)cc(c3)-c3ccc4c(c3)c(c(-c3nccnc3COC)n4CC)CC(C)(C)COC(=O)[C@@H]3CCCN(N3)C2=O)C(C)C)C1 [US11566007, Example A85]		> 10 µM		
C=CC(=O)N1CC[C@H](C(=O)N(C)[C@H](C(=O)N[C@H]2Cc3cc(O)cc(c3)-c3ccc4c(c3)c(c(-c3ccccc3)n4CC)CC(C)(C)COC(=O)[C@@H]3CCCN(N3)C2=O)C(C)C)C1 [US11566007, Example A23]		> 10 µM	in the range around 0.55 µM	
C=CC(=O)N1CC[C@H](C(=O)N(C)[C@H](C(=O)N[C@H]2Cc3nc(cs3)-c3ccc4c(c3)c(c(-c3cccnc3COC)n4CC)CC(C)(C)COC(=O)[C@@H]3CCCN(N3)C2=O)C(C)C)C1 [US11566007, Example A94]	in the range around 0.55 µM		in the range around 0.55 µM	
C=CC(=O)N1CC[C@H](C(=O)N(C)[C@H](C(=O)N[C@H]2Cc3cc(O)cc(c3)-c3ccc4c(c3)c(c(-c3ccncc3)n4C(C)(C)C#N)CC(C)(C)COC(=O)[C@@H]3CCCN(N3)C2=O)C(C)C)C1 [US11566007, Example A86]			in the range around 0.055 µM	IC50 [6]: in the range around 5.5 µM; IC50 [7]: in the range around 0.55 µM
C=CC(=O)N1CC[C@H](C(=O)N(C)[C@H](C(=O)N[C@H]2Cc3cc(O)cc(c3)-c3ccc4c(c3)c(c(-c3ccc5c(c3)OCCN5C)n4CC)CC(C)(C)COC(=O)[C@@H]3CCCN(N3)C2=O)C(C)C)C1 [US11566007, Example A50]			in the range around 0.55 µM	IC50 [8]: > 10 µM
CCn1c(-c2cccnc2COC)c2c3cc(ccc31)-c1cc(O)cc(c1)C[C@H](NC(=O)[C@H](C(C)C)N(C)C(=O)[C@H]1CCN(C(=O)C#CCN(C)C)C1)C(=O)N1CCC[C@H](N1)C(=O)OCC(C)(C)C2 [US11566007, Example A96]	< 0.01 µM			IC50 [9]: < 0.01 µM; IC50 [2]: 0.1 to 1 µM
C=CC(=O)N1CC[C@H](C(=O)N(C)[C@H](C(=O)N[C@H]2Cc3cc(O)cc(c3)-c3ccc4c(c3)c(c(-c3cncnc3)n4CC)CC(C)(C)COC(=O)[C@@H]3CCCN(N3)C2=O)C(C)C)C1 [US11566007, Example A61]			in the range around 0.55 µM	IC50 [3]: in the range around 5.5 µM; IC50 [8]: > 10 µM
C=CC(=O)N1CC[C@H](C(=O)N(C)[C@H](C(=O)N[C@H]2CC3=NN=C(O3)c3ccc4c(c3)c(c(-c3cccnc3[C@H](C)OCC)n4CC(F)(F)F)CC(C)(C)COC(=O)[C@@H]3CCCN(N3)C2=O)C(C)C)C1 [US11566007, Example A424]	in the range around 0.55 µM		in the range around 0.55 µM	IC50 [9]: in the range around 5.5 µM
C=CC(=O)N1CC[C@H](C(=O)N(C)[C@H](C(=O)N[C@H]2Cc3cc(O)cc(c3)-c3ccc4c(c3)c(c(-c3ccccc3[C@H](C)OC)n4CC)CC(C)(C)COC(=O)[C@@H]3CCCN(N3)C2=O)C(C)C)C1 [US11566007, Example A22]		in the range around 0.55 µM		IC50 [7]: in the range around 0.055 µM
C=CC(=O)N1CC[C@H](C(=O)N(C)[C@H](C(=O)N[C@H]2Cc3cc(O)cc(c3)-c3ccc4c(c3)c(c(-c3cnccc3C)n4CC)CC(C)(C)COC(=O)[C@@H]3CCCN(N3)C2=O)C(C)C)C1 [US11566007, Example A77]				IC50 [10]: in the range around 0.55 µM
C=CC(=O)N1CC[C@H](C(=O)N(C)[C@H](C(=O)N[C@H]2Cc3cc(O)cc(c3)-c3ccc4c(c3)c(c(-c3c(F)cccc3CCOC)n4CC)CC(C)(C)COC(=O)[C@@H]3CCCN(N3)C2=O)C(C)C)C1 [US11566007, Example A25]		in the range around 5.5 µM	in the range around 0.55 µM	IC50 [8]: > 10 µM
